Experimental data as given in patent publication US20230055237A1, “COMPOUNDS AND METHODS FOR THE TREATMENT OF CYSTIC FIBROSIS” (Flatley Discovery Lab, LLC, priority 2019, published 2023).

Molecular target: T1, CFTR (Homo sapiens, UniProt P13569, DEL508-508)
T1 construct: Primary CF airway epithelial cells were obtained from the UNC Cystic Fibrosis Tissue Procurement and Cell Culture Core; host or cells: primary CF airway epithelial cells, differentiated at the air-liquid interface
Experiment: Equivalent current assay in primary CF airway epithelial cells (NAUC, combination with 1st site corrector FDL169 or VX-809)
Assay type: cell-based
Settings: 37° C., 24 h

[1] = test compound 10 μM in combination with 1st site corrector VX-809 (3 μM)
[2] = test compound 1 μM in combination with 1st site corrector VX-809 (3 μM)
[3] = test compound 3 μM in combination with 1st site corrector VX-809 (3 μM)
[4] = test compound 1 μM in combination with 1st site corrector FDL169 (3 μM)
[5] = test compound 3 μM in combination with 1st site corrector FDL169 (3 μM)
[6] = test compound 10 μM in combination with 1st site corrector FDL169 (3 μM)

T1 sequence (P13569 with tags, fused parts or gaps DEL508-508): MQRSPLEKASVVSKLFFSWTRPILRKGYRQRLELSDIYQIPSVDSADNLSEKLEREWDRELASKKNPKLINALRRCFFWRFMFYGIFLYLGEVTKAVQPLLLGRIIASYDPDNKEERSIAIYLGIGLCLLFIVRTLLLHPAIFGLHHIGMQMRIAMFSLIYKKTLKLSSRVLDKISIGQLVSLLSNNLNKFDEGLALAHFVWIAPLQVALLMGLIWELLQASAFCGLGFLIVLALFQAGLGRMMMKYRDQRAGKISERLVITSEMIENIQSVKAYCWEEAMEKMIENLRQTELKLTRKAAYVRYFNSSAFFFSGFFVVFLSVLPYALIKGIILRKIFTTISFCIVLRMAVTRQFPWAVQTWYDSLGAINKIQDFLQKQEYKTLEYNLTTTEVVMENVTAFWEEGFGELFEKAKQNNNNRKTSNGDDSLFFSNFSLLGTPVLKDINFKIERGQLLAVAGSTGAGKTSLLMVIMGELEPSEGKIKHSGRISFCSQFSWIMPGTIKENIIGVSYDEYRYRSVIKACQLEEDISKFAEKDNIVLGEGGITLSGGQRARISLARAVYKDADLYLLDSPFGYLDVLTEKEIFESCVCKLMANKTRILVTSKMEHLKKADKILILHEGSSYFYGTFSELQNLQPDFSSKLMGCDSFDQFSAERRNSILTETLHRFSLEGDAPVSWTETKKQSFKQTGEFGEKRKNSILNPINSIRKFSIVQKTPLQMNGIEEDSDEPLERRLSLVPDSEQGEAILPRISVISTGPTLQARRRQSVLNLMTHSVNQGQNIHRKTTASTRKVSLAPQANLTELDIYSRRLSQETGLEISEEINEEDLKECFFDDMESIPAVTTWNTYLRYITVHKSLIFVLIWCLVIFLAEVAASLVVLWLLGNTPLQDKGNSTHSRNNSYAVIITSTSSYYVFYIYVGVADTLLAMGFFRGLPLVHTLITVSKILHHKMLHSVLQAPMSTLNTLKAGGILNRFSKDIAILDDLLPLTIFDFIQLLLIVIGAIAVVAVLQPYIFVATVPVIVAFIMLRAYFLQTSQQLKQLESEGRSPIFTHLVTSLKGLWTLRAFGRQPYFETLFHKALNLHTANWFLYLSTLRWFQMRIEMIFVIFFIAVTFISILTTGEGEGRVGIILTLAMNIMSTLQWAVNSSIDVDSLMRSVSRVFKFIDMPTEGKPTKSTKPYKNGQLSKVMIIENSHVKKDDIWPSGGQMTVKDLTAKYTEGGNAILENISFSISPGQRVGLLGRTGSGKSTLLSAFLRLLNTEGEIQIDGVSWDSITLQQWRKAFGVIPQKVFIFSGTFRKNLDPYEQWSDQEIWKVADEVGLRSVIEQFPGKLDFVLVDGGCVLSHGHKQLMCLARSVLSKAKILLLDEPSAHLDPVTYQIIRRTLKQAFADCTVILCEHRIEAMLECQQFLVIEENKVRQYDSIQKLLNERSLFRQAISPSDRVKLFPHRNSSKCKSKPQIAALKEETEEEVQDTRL

## CN(C(=O)[C@H]1[C@H]2CC(F)(F)CN2[C@]2(C(=O)Nc3c(Cl)cc(Cl)cc32)[C@H]1C(=O)NS(=O)(=O)c1ccccc1)c1cc(Cl)cc(Cl)c1 [Example 261, (1′R,2′S,3R,7a′R)-5,7-dichloro-N1′-(3,5-dichlorophenyl)-6′,6′-difluoro-N1′-methyl-2-oxo-N2′-(phenylsulfonyl)-1′,2′,5′,6′,7′,7a′-hexahydrospiro[indoline-3,3′-pyrrolizine]-1,2′-dicarboxamide]
[1]
  Nauc @ 10 μM: + (NAUC “+” refers to an observed NAUC <140% of positive control)

## O=C(Nc1cccc2c1CCCC2)[C@H]1[C@H]2CC(F)(F)CN2[C@]2(C(=O)Nc3c(Cl)cc(Cl)cc32)[C@H]1C(=O)O [Example 131]
[2]
  Nauc @ 1 μM: +++ (NAUC “+++” refers to an observed NAUC>170% of positive control)
[3]
  Nauc @ 3 μM: +++ (NAUC “+++” refers to an observed NAUC>170% of positive control)

## O=C(Nc1cc(Cl)c(OC(F)F)c(Cl)c1)C1C2CC(F)(F)CN2C2(C(=O)Nc3c(Cl)cc(Cl)cc32)C1C(=O)O (stereo not drawn) [Example 20]
[3]
  Nauc @ 3 μM: +++ (NAUC “+++” refers to an observed NAUC>170% of positive control)
[1]
  Nauc @ 10 μM: +++ (NAUC “+++” refers to an observed NAUC>170% of positive control)

## O=C(O)[C@H]1[C@@H](C(=O)N(c2cc(Cl)cc(Cl)c2)C2CC2)[C@H]2CC(F)(F)CN2[C@]12C(=O)Nc1c(Cl)cc(Cl)cc12 [Example 116]
[2]
  Nauc @ 1 μM: +++ (NAUC “+++” refers to an observed NAUC>170% of positive control)
[3]
  Nauc @ 3 μM: +++ (NAUC “+++” refers to an observed NAUC>170% of positive control)
[1]
  Nauc @ 10 μM: ++ (NAUC “++” refers to an observed NAUC 170-140% of positive control)

## O=C(O)[C@H]1[C@@H](C(=O)N(CC2CC2)c2cc(Cl)cc(Cl)c2)[C@H]2CC(F)(F)CN2[C@]12C(=O)N(C1CC1)c1c(Cl)cc(Cl)cc12 [Example 208, (1′R,2′S,3R,7a′R)-5,7-dichloro-1-cyclopropyl-1′-((cyclopropylmethyl)(3,5-dichlorophenyl)carbamoyl)-6′,6′-difluoro-2-oxo-1′,2′,5′,6′,7′,7a′-hexahydrospiro[indoline-3.3′-pyrrolizine]-2′-carboxylic acid]
[4]
  Nauc @ 1 μM: ++ (NAUC “++” refers to an observed NAUC 170-140% of positive control)
[5]
  Nauc @ 3 μM: ++ (NAUC “++” refers to an observed NAUC 170-140% of positive control)
[6]
  Nauc @ 10 μM: + (NAUC “+” refers to an observed NAUC <140% of positive control)

## CN(C(=O)[C@H]1[C@H]2CC(F)(F)CN2[C@]2(C(=O)Nc3c(Cl)cc(Cl)cc32)[C@H]1C(=O)NCC(F)(F)F)c1cc(Cl)cc(Cl)c1 (single isomer, unassigned) [Example 232b]
[2]
  Nauc @ 1 μM: + (NAUC “+” refers to an observed NAUC <140% of positive control)
[3]
  Nauc @ 3 μM: + (NAUC “+” refers to an observed NAUC <140% of positive control)
[1]
  Nauc @ 10 μM: + (NAUC “+” refers to an observed NAUC <140% of positive control)

## O=C(Nc1cc(Cl)cc(Cl)c1)C1C(C(F)(F)c2ccc(Cl)cc2)NC2(C(=O)Nc3c(Cl)cc(Cl)cc32)C1C(=O)O (stereo not drawn) [Example 67.9b, 5,7-dichloro-5,7′-((4-chlorophenyl)difluoromethyl)-4′-((3,5-dichlorophenyl)carbamoyl)-2-oxospiro[indoline-3,2′-pyrrolidine]-3′-carboxylic acid]
[2]
  Nauc @ 1 μM: + (NAUC “+” refers to an observed NAUC <140% of positive control)
[3]
  Nauc @ 3 μM: ++ (NAUC “++” refers to an observed NAUC 170-140% of positive control)
[1]
  Nauc @ 10 μM: +++ (NAUC “+++” refers to an observed NAUC>170% of positive control)

## O=C(Nc1cc(Cl)cc(Cl)c1)C1C(Cc2ccccc2)NC2(C(=O)Nc3c(Cl)cc(Cl)cc32)C1C(=O)O (stereo not drawn) [Example 34]
[3]
  Nauc @ 3 μM: +++ (NAUC “+++” refers to an observed NAUC>170% of positive control)
[1]
  Nauc @ 10 μM: ++ (NAUC “++” refers to an observed NAUC 170-140% of positive control)

## O=C(O)[C@H]1[C@@H](C(=O)N(CC2CC2)c2ccccc2-c2ccccc2)[C@H]2CC(F)(F)CN2[C@]12C(=O)Nc1c(Cl)cc(Cl)cc12 [Example 180]
[4]
  Nauc @ 1 μM: +++ (NAUC “+++” refers to an observed NAUC>170% of positive control)
[5]
  Nauc @ 3 μM: +++ (NAUC “+++” refers to an observed NAUC>170% of positive control)
[6]
  Nauc @ 10 μM: + (NAUC “+” refers to an observed NAUC <140% of positive control)

## Cn1cnc(NC(=O)[C@H]2[C@@H](C(=O)Nc3cc(Cl)cc(Cl)c3)[C@H]3CCCN3[C@]23C(=O)Nc2c(Cl)cc(Cl)cc23)c1 (single isomer, unassigned) [Example 237, (1′R,2′S,7a′R)-5,7-dichloro-N1′-(3,5-dichlorophenyl)-N2′-(1-methyl-1H-imidazol-4-yl)-2-oxo-1′,2′,5′,6′,7′,7a′-hexahydrospiro[indoline-3,3′-pyrrolizine]-1′,2′-dicarboxamide]
[2]
  Nauc @ 1 μM: + (NAUC “+” refers to an observed NAUC <140% of positive control)
[3]
  Nauc @ 3 μM: + (NAUC “+” refers to an observed NAUC <140% of positive control)
[1]
  Nauc @ 10 μM: ++ (NAUC “++” refers to an observed NAUC 170-140% of positive control)

## COCCN1C(=O)[C@]2(c3cc(Cl)cc(Cl)c31)[C@@H](C(=O)O)[C@@H](C(=O)N(CC1CC1)c1cc(Cl)cc(Cl)c1)[C@H]1CC(F)(F)CN12 [Example 203]
[4]
  Nauc @ 1 μM: + (NAUC “+” refers to an observed NAUC <140% of positive control)
[5]
  Nauc @ 3 μM: + (NAUC “+” refers to an observed NAUC <140% of positive control)

## CC(C)(C)CN(C(=O)[C@H]1[C@@H](C(=O)O)[C@]2(C(=O)Nc3c(Cl)cc(Cl)cc32)N2CC(F)(F)C[C@@H]12)c1cc(Cl)cc(Cl)c1 [Example 111, (1′S,2′R,3S,7a′S)-5,7-dichloro-1-((3,5-dichlorophenyl)(neopentyl)carbamoyl)-6′,6′-difluoro-2-oxo-1′,2′,5′,6′,7′,7a′-hexahydrospiro[indoline-3,3′-pyrrolizine]-2′-carboxylic acid]
[4]
  Nauc @ 1 μM: + (NAUC “+” refers to an observed NAUC <140% of positive control)
[5]
  Nauc @ 3 μM: ++ (NAUC “++” refers to an observed NAUC 170-140% of positive control)

## Cn1cnc2cc(NC(=O)[C@H]3[C@H]4CC(F)(F)CN4[C@]4(C(=O)Nc5c(Cl)cc(Cl)cc54)[C@H]3C(=O)O)ccc21 [Example 146]
[4]
  Nauc @ 1 μM: + (NAUC “+” refers to an observed NAUC <140% of positive control)
[5]
  Nauc @ 3 μM: + (NAUC “+” refers to an observed NAUC <140% of positive control)

## Cn1ccc2c(NC(=O)[C@H]3[C@H]4CC(F)(F)CN4[C@]4(C(=O)Nc5c(Cl)cc(Cl)cc54)[C@H]3C(=O)O)cccc21 [Example 141]
[4]
  Nauc @ 1 μM: + (NAUC “+” refers to an observed NAUC <140% of positive control)
[5]
  Nauc @ 3 μM: + (NAUC “+” refers to an observed NAUC <140% of positive control)

## O=C(Nc1cc(Cl)cc(Cl)c1)C1C(C(F)(F)c2ccccn2)NC2(C(=O)Nc3c(Cl)cc(Cl)cc32)C1C(=O)O (stereo not drawn) [Example 72.b]
[1]
  Nauc @ 10 μM: + (NAUC “+” refers to an observed NAUC <140% of positive control)

## O=C(NCCc1ccc(Cl)cc1)C1C2CC(F)(F)CN2C2(C(=O)Nc3c(Cl)cc(Cl)cc32)C1C(=O)O (stereo not drawn) [Example 52]
[3]
  Nauc @ 3 μM: ++ (NAUC “++” refers to an observed NAUC 170-140% of positive control)
[1]
  Nauc @ 10 μM: +++ (NAUC “+++” refers to an observed NAUC>170% of positive control)

## O=C(O)[C@H]1[C@@H](C(=O)N(CC2CCC2)c2cc(Cl)cc(Cl)c2)[C@H]2CC(F)(F)CN2[C@]12C(=O)Nc1c(Cl)cc(Cl)cc12 [Example 148]
[4]
  Nauc @ 1 μM: +++ (NAUC “+++” refers to an observed NAUC>170% of positive control)
[5]
  Nauc @ 3 μM: +++ (NAUC “+++” refers to an observed NAUC>170% of positive control)
[6]
  Nauc @ 10 μM: +++ (NAUC “+++” refers to an observed NAUC>170% of positive control)

## CCN(C(=O)[C@H]1[C@H]2CC(F)(F)CN2C2(C(=O)Nc3c(Cl)cc(Cl)cc32)[C@H]1C(=O)O)c1cc(Cl)cc(Cl)c1 (stereo partly drawn) [Example 289]
[2]
  Nauc @ 1 μM: +++ (NAUC “+++” refers to an observed NAUC>170% of positive control)
[3]
  Nauc @ 3 μM: +++ (NAUC “+++” refers to an observed NAUC>170% of positive control)
[1]
  Nauc @ 10 μM: +++ (NAUC “+++” refers to an observed NAUC>170% of positive control)

## O=C(Nc1cc(Cl)cc(Cl)c1)C1C2CC(F)(F)CN2C2(C(=O)Nc3c(Cl)cc(Cl)cc32)C1C(=O)NO (single isomer, unassigned) [Example 226b, 5,7-dichloro-N1′-(3,5-dichlorophenyl)-6′,6′-difluoro-N2′-hydroxy-2-oxo-1′,2′,5′,6′,7′,7a′-hexahydrospiro[indoline-3,3′-pyrrolizine]-1′,2′-dicarboxamide]
[2]
  Nauc @ 1 μM: + (NAUC “+” refers to an observed NAUC <140% of positive control)
[3]
  Nauc @ 3 μM: +++ (NAUC “+++” refers to an observed NAUC>170% of positive control)
[1]
  Nauc @ 10 μM: +++ (NAUC “+++” refers to an observed NAUC>170% of positive control)

## O=C(Nc1ccccc1O)C1C2CC(F)(F)CN2C2(C(=O)Nc3c(Cl)cc(Cl)cc32)C1C(=O)O (stereo not drawn) [Example 78.a]
[1]
  Nauc @ 10 μM: + (NAUC “+” refers to an observed NAUC <140% of positive control)

## C[C@]1(OCc2ccccc2)C[C@@H]2[C@H](C(=O)N(CC3CC3)c3cc(Cl)cc(Cl)c3)[C@H](C(=O)O)[C@@]3(C(=O)Nc4c(Cl)cc(Cl)cc43)N2C1 [Example 93]
[4]
  Nauc @ 1 μM: +++ (NAUC “+++” refers to an observed NAUC>170% of positive control)
[5]
  Nauc @ 3 μM: +++ (NAUC “+++” refers to an observed NAUC>170% of positive control)
[6]
  Nauc @ 10 μM: ++ (NAUC “++” refers to an observed NAUC 170-140% of positive control)

## O=C(Nc1cc(Cl)cc(Cl)c1)C1C(COCc2ccccc2)NC2(C(=O)Nc3c(Cl)cc(Cl)cc32)C1C(=O)O (stereo not drawn) [Example 32]
[3]
  Nauc @ 3 μM: +++ (NAUC “+++” refers to an observed NAUC>170% of positive control)
[1]
  Nauc @ 10 μM: +++ (NAUC “+++” refers to an observed NAUC>170% of positive control)
